Data: patent US10508120B2, “TYK2 inhibitors and uses thereof” (Nimbus Lakshmi, Inc., priority 2017, dated 2019)
Where two headings read alike, the source gives them in different places.

How the values were obtained:
[1] = target: Tyk2 kinase domain (DH1) (Homo sapiens (Human), UniProt P29597); assay: Tyk2 Radioactive Kinase Assay; assay type: biochemical; conditions: for inhibition at 10 µM: read-out: Tyk2 JH1% Inhibition @ 10 μM
Protocol: (§1) The Tyk2 and JAK2 radioactive kinase assay measures the percent inhibition at the Tyk2 kinase domain (DH1) and the percent inhibition at the JAK2 kinase domain (JH1). Results of the assay are expressed as percent inhibition at 10 μM.

[2] = target: JAK2 kinase domain (JH1) (Homo sapiens (Human), UniProt O60674); assay: JAK2 Radioactive Kinase Assay; assay type: biochemical; conditions: for inhibition at 10 µM: read-out: JAK2 JH1% Inhibition @ 10 μM
Protocol: as §1

[3] = target: human TYK2 (JH2domain-pseudokinase) (Homo sapiens (Human), UniProt P29597); assay: TYK2 JH2 Domain Binding Assay (KINOMEscan)
Outline: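 Displacement of a DNA-tagged TYK2 JH2 fusion (human, aa G556–D888, HEK293 extract, <0.1 nM) from ligand-coated beads over 1 h at RT; binding buffer PBS/0.05% Tween 20/10 mM DTT/0.1% BSA.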

Sequence of Tyk2 kinase domain (DH1) (P29597 897-1176): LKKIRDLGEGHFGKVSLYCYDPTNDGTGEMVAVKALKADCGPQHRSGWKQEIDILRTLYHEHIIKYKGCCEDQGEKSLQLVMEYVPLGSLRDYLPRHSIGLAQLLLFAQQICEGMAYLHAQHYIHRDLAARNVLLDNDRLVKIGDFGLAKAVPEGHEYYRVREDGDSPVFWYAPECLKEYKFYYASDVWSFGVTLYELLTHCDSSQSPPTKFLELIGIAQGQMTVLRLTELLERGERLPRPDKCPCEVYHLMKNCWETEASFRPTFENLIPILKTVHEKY
Sequence of human TYK2 (JH2domain-pseudokinase) (P29597 556-888): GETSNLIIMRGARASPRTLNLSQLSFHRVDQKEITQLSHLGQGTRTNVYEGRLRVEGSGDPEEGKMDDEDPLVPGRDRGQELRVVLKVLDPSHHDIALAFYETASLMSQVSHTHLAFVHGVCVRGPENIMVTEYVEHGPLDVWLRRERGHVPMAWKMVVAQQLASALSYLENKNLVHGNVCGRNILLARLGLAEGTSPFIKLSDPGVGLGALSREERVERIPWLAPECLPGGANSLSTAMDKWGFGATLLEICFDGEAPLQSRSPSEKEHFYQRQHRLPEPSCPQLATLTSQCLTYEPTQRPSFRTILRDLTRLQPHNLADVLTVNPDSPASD
Sequence of JAK2 kinase domain (JH1) (O60674 849-1124): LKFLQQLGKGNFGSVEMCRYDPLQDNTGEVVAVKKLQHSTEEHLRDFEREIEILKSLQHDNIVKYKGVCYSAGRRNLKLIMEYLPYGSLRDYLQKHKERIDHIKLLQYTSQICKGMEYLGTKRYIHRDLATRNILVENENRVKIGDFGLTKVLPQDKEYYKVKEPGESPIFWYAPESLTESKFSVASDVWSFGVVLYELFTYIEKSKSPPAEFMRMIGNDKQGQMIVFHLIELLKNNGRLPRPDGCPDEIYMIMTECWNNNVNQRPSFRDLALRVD

| SMILES | Tyk2 JH1% Inhibition @ 10 μM ([1]; compound at 10 μM, ATP 10 μM) | JAK2 JH1% Inhibition @ 10 μM ([2]; compound at 10 μM, ATP 10 μM) | inhibition at 10 µM ([2]; 10 μM compound, 10 μM ATP) | further results |
| --- | --- | --- | --- | --- |
| CNc1cc(-c2cn(C(C)C)c3ncccc23)nc2c(C(=O)N[C@@H]3C[C@H]3O)cnn12 (stereo in doubt) [I-732, N-((1R,2R)-2-hydroxycyclopropyl)-5-(1-isopropyl-1H-pyrrolo[2,3-b]pyridin-3-yl)-7-(methylamino)pyrazolo[1,5-a]pyrimidine-3-carboxamide] | A (percent inhibition at 10 μM lower than 50) | A (percent inhibition at 10 μM lower than 50) | – | – |
| CNc1cc(Nc2cccnc2OC)nc2c(C(=O)N[C@@H]3CCC[C@H]3O)cnn12 [I-448, (R)—N-((1R,2R)-2-hydroxycyclopentyl)-5-((2-methoxypyridin-3-yl)amino)-7-(methylamino)pyrazolo[1,5-a]pyrimidine-3-carboxamide] | A (percent inhibition at 10 μM lower than 50) | A (percent inhibition at 10 μM lower than 50) | – | – |
| CNc1cc(Nc2cccnc2OC2CC2)nc2c(C(=O)N[C@H]3CC[C@H](O)C3)cnn12 [I-489, 5-((2-cyclopropoxypyridin-3-yl)amino)-N-((1S,3S)-3-hydroxycyclopentyl)-7-(methylamino)pyrazolo[1,5-a]pyrimidine-3-carboxamide] | A (percent inhibition at 10 μM lower than 50) | A (percent inhibition at 10 μM lower than 50) | – | – |
| CNc1cc(Nc2cccn(C3CCOCC3)c2=O)nc2c(C(=O)N[C@H]3CC[C@@H]3O)cnn12 [I-596] | A (percent inhibition at 10 μM lower than 50) | A (percent inhibition at 10 μM lower than 50) | – | – |
| CNc1cc(Nc2cccn([C@H]3CC[C@H](OC)CC3)c2=O)nc2c(C(=O)N[C@H]3CC[C@@H]3O)cnn12 [I-636] | A (percent inhibition at 10 μM lower than 50) | A (percent inhibition at 10 μM lower than 50) | – | – |
| CNc1cc(Nc2cccc([C@@H]3CCCCO3)n2)nc2c(C(=O)N[C@@H]3CC[C@@H]3O)cnn12 [I-646] | A (percent inhibition at 10 μM lower than 50) | A (percent inhibition at 10 μM lower than 50) | – | – |
| CNc1cc(Nc2cccc([C@H]3CCCOC3)n2)nc2c(C(=O)N[C@H]3CC[C@@H]3O)cnn12 [I-666] | A (percent inhibition at 10 μM lower than 50) | A (percent inhibition at 10 μM lower than 50) | – | – |
| CNc1cc(Nc2cccn([C@H]3CCN(C)C[C@@H]3F)c2=O)nc2c(C(=O)NC3CC3)cnn12 [I-685] | A (percent inhibition at 10 μM lower than 50) | A (percent inhibition at 10 μM lower than 50) | – | – |
| CNc1cc(Nc2cccn([C@H]3CCCOC3)c2=O)nc2c(C(=O)N[C@H]3CC[C@@H]3O)cnn12 [I-724] | A (percent inhibition at 10 μM lower than 50) | A (percent inhibition at 10 μM lower than 50) | – | – |
| CNc1cc(Nc2cccn([C@@H]3CCCOC3)c2=O)nc2c(C(=O)N[C@H]3CC[C@@H]3O)cnn12 [I-726] | A (percent inhibition at 10 μM lower than 50) | A (percent inhibition at 10 μM lower than 50) | – | – |
| CNc1cc(Nc2cccn(-c3nc(C)co3)c2=O)nc2c(C(=O)N[C@H]3CC[C@@H]3O)cnn12 [I-769] | A (percent inhibition at 10 μM lower than 50) | A (percent inhibition at 10 μM lower than 50) | – | – |
| CNc1cc(Nc2cccn([C@@H]3CCCOC3)c2=O)nc2c(C(=O)N[C@@H]3CCC[C@@H](O)C3)cnn12 [I-780] | A (percent inhibition at 10 μM lower than 50) | A (percent inhibition at 10 μM lower than 50) | – | – |
| CNc1cc(Nc2cccn([C@@H]3CCCOC3)c2=O)nc2c(C(=O)N[C@H]3COC[C@H]3O)cnn12 [I-786] | A (percent inhibition at 10 μM lower than 50) | A (percent inhibition at 10 μM lower than 50) | – | – |
| CNc1cc(Nc2cccn([C@@H]3CC[C@H]3O)c2=O)nc2c(C(=O)NC3CC3)cnn12 [I-802] | A (percent inhibition at 10 μM lower than 50) | A (percent inhibition at 10 μM lower than 50) | – | – |
| CNc1cc(Nc2cccn([C@H]3CCCOC3)c2=O)nc2c(C(=O)N[C@H]3CC[C@H]3O)cnn12 [I-803] | A (percent inhibition at 10 μM lower than 50) | A (percent inhibition at 10 μM lower than 50) | – | – |
| CNc1cc(Nc2cccn([C@H]3CCC[C@H](O)C3)c2=O)nc2c(C(=O)NC3CC3)cnn12 [I-821] | – | – | < 50% | inhibition at 10 µM ([1]; 10 μM compound, 10 μM ATP): < 50% |
| CNc1cc(Nc2cc(Cl)cn(C3CCOCC3)c2=O)nc2c(C(=O)N[C@H]3CC[C@@H]3O)cnn12 [I-826] | – | – | < 50% | inhibition at 10 µM ([1]; 10 μM compound, 10 μM ATP): < 50% |
| CNc1cc(Nc2cccc(N3CCO[C@@]4(CCOC4)C3)n2)nc2c(C(=O)NC3CC3)cnn12 [I-828] | – | – | < 50% | inhibition at 10 µM ([1]; 10 μM compound, 10 μM ATP): < 50% |
| CNc1cc(-c2cn(CCN3CCOCC3)c3ncccc23)nc2c(C(=O)N[C@@H]3CC[C@H]3O)cnn12 [I-835] | – | – | < 50% | inhibition at 10 µM ([1]; 10 μM compound, 10 μM ATP): < 50% |

| SMILES | Tyk2 JH1% Inhibition @ 10 μM ([1]; compound at 10 μM, ATP 10 μM) | JAK2 JH1% Inhibition @ 10 μM ([2]; compound at 10 μM, ATP 10 μM) | inhibition at 10 µM ([2]; 10 μM compound, 10 μM ATP) | further results |
| --- | --- | --- | --- | --- |
| CNc1cc(Nc2cccn([C@H]3CCC[C@@H](OC)C3)c2=O)nc2c(C(=O)N[C@@H]3C[C@@H]3F)cnn12 [I-839] | – | – | < 50% | inhibition at 10 µM ([1]; 10 μM compound, 10 μM ATP): < 50% |
| CNc1cc(Nc2cccn(-c3cccnc3C)c2=O)nc2c(C(=O)N[C@H]3CC[C@@H]3OC)cnn12 [I-865] | – | – | < 50% | – |
| CNc1cc(Nc2cccn([C@@H]3C[C@H]3F)c2=O)nc2c(C(=O)NC3CC3)cnn12 [I-866] | – | – | < 50% | inhibition at 10 µM ([1]; 10 μM compound, 10 μM ATP): < 50% |
| CNc1cc(Nc2cccn(C3CC4(COC4)C3)c2=O)nc2c(C(=O)N[C@H]3CC[C@H]3O)cnn12 [I-870] | – | – | < 50% | inhibition at 10 µM ([1]; 10 μM compound, 10 μM ATP): < 50% |
| CNc1cc(Nc2cccn([C@H]3CCCOC3)c2=O)nc2c(C(=O)N[C@@H]3CC[C@H]3OC)cnn12 [I-876] | – | – | – | JAK2 JH1% Inhibition @ 10 μM ([2]; 10 μM compound, 10 μM ATP): A (percent inhibition at 10 μM lower than 50) |
| CNc1cc(Nc2cccn(C3CCN(CCF)CC3)c2=O)nc2c(C(=O)N[C@H]3CC[C@H]3O)cnn12 [I-896] | – | – | – | Tyk2 JH1% Inhibition @ 10 μM ([1]; 10 μM compound, 10 μM ATP): A (percent inhibition at 10 μM lower than 50); JAK2 JH1% Inhibition @ 10 μM ([2]; 10 μM compound, 10 μM ATP): A (percent inhibition at 10 μM lower than 50) |
| CNc1cc(Nc2cccn(C3CCN(CCF)CC3)c2=O)nc2c(C(=O)N[C@@H]3CC[C@H]3O)cnn12 [I-898] | – | – | – | Tyk2 JH1% Inhibition @ 10 μM ([1]; 10 μM compound, 10 μM ATP): A (percent inhibition at 10 μM lower than 50); JAK2 JH1% Inhibition @ 10 μM ([2]; 10 μM compound, 10 μM ATP): A (percent inhibition at 10 μM lower than 50) |
| CNc1cc(Nc2cccn([C@@H]3CCCOC3)c2=O)nc2c(C(=O)N[C@H]3CC[C@@H]3OC)cnn12 [I-903, N-((1S,2S)-2-methoxycyclobutyl)-7-(methylamino)-5-((2-oxo-1-((R)-tetrahydro-2H-pyran-3-yl)-1,2-dihydropyridin-3-yl)amino)pyrazolo[1,5-a]pyrimidine-3-carboxamide] | – | – | < 50% | – |
| CNc1cc(-c2cn(CCN3CCN(C)CC3)c3ncccc23)nc2c(C(=O)N[C@H]3CC[C@H]3O)cnn12 [I-906, N-((1S,2R)-2-hydroxycyclobutyl)-7-(methylamino)-5-(1-(2-(4-methylpiperazin-1-yl)ethyl)-1H-pyrrolo[2,3-b]pyridin-3-yl)pyrazolo[1,5-a]pyrimidine-3-carboxamide] | – | – | – | Tyk2 JH1% Inhibition @ 10 μM ([1]; 10 μM compound, 10 μM ATP): A (percent inhibition at 10 μM lower than 50); JAK2 JH1% Inhibition @ 10 μM ([2]; 10 μM compound, 10 μM ATP): A (percent inhibition at 10 μM lower than 50) |
| CNc1cc(Nc2cccn(-c3ccccn3)c2=O)nc2c(C(=O)N[C@H]3CC[C@@H]3OC)cnn12 [I-909, N-((1S,2S)-2-methoxycyclobutyl)-7-(methylamino)-5-((2-oxo-2H-[1,2′-bipyridin]-3-yl)amino)pyrazolo[1,5-a]pyrimidine-3-carboxamide] | – | – | – | inhibition at 10 µM [1]: < 50%; inhibition at 10 µM [2]: < 50% |
| CNc1cc(Nc2cccn(C(C)C)c2=O)nc2c(C(=O)N[C@H]3CCC[C@H](O)C3)cnn12 [I-919, 5-N-(3-hydroxycyclohexyl)-5-((1-isopropyl-2-oxo-1,2-dihydropyridin-3-yl)amino)-7-(methylamino)pyrazolo[1,5-a]pyrimidine-3-carboxamide] | – | – | – | Tyk2 JH1% Inhibition @ 10 μM ([1]; 10 μM compound, 10 μM ATP): A (percent inhibition at 10 μM lower than 50); JAK2 JH1% Inhibition @ 10 μM ([2]; 10 μM compound, 10 μM ATP): A (percent inhibition at 10 μM lower than 50) |
| CNc1cc(Nc2cccn(-c3cccnc3C)c2=O)nc2c(C(=O)N[C@H]3CC[C@@H]3OC)cnn12 [I-924] | – | – | – | JAK2 JH1% Inhibition @ 10 μM ([2]; 10 μM compound, 10 μM ATP): A (percent inhibition at 10 μM lower than 50) |
| CNc1cc(Nc2cccn(-c3cccnc3C)c2=O)nc2c(C(=O)N[C@@H]3CC[C@H]3OC)cnn12 [I-925] | – | – | < 50% | – |
| CNc1cc(Nc2cccn(-c3cncc(F)c3)c2=O)nc2c(C(=O)N[C@H]3CC[C@@H]3OC)cnn12 [I-1084] | – | – | < 50% | – |
| CNc1cc(Nc2cccn(-c3cncc(F)c3)c2=O)nc2c(C(=O)N[C@@H]3CC[C@H]3OC)cnn12 [I-1085] | – | – | < 50% | – |
| CNc1cc(Nc2cccn([C@H]3CC[C@H]3O)c2=O)nc2c(C(=O)N[C@H]3CC[C@@H]3OC)cnn12 [I-1410] | – | – | – | Kd [3]: < 0.2 nM |
| CNc1cc(Nc2cccn(-c3ccccn3)c2=O)nc2c(C(=O)N[C@H]3C[C@@H]3OC)cnn12 [I-1412] | – | – | – | Kd [3]: 0.2 to 1 nM |
| CNc1cc(Nc2cccn([C@@H]3CCCOC3)c2=O)nc2c(C(=O)N[C@H]3C[C@@H]3OC)cnn12 [I-1414] | – | – | – | Kd [3]: > 10 nM |
